According to ChEMBL document CHEMBL1133126, “Non-peptidic phenyl-based thrombin inhibitors: exploring structural requirements of the S1 specificity pocket with amidines” (Bioorg Med Chem Lett, 2000):

Columns and labels:
Coagulation factor X [1] = molecular target: T1, Coagulation factor X (Homo sapiens, UniProt P00742); experiment: Compound was evaluated for inhibition of Coagulation factor X at 1 uM
[2] = molecular target: T2, Chymotrypsin-C (Homo sapiens) (UniProt Q99895); experiment: Compound was evaluated for inhibition of Serine protease chymotrypsin at 1 uM
T2 sequence (whole entry): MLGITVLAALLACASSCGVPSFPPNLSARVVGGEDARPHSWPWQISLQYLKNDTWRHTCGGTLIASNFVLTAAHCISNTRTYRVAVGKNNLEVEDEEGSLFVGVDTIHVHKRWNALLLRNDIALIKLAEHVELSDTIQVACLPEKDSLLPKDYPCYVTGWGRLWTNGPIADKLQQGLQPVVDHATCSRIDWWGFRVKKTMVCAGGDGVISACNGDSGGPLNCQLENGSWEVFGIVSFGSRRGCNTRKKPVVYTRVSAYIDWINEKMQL

[3] = molecular target: T3, Serine protease 1 (Bos taurus) (UniProt P00760); experiment: Compound was evaluated for inhibition of Trypsin at 1 uM
T3 sequence (whole entry): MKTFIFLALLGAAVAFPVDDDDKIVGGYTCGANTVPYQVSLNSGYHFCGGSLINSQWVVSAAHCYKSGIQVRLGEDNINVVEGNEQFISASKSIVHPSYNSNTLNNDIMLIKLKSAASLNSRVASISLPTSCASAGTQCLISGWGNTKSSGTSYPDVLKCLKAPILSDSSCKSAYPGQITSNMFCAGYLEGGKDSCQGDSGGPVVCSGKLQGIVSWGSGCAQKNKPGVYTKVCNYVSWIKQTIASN

Serine protease 1 = molecular target: T4, Serine protease 1 (Bos taurus, UniProt P00760); experiment: Compound was evaluated for inhibition of Trypsin
T4 sequence (P00760 whole entry): T3 sequence (whole entry)

Coagulation factor X [4] = molecular target: T1, Coagulation factor X; experiment: Compound was evaluated for inhibition of Coagulation factor X
[5] = molecular target: T2, Chymotrypsin-C (Homo sapiens); experiment: Compound was evaluated for inhibition of Serine protease chymotrypsin at 1.7 uM
Prothrombin = Prothrombin (Homo sapiens, UniProt P00734); experiment: Compound was evaluated for inhibition of Thrombin
[6] = molecular target: T2, Chymotrypsin-C (Homo sapiens); experiment: Compound was evaluated for inhibition of Serine protease chymotrypsin at […]
[7] = molecular target: T3, Serine protease 1 (Bos taurus); experiment: Compound was evaluated for inhibition of Trypsin at 15 uM
Coagulation factor X [8] = molecular target: T1, Coagulation factor X; experiment: Compound was evaluated for inhibition of Coagulation factor X at […]
Coagulation factor X [9] = molecular target: T1, Coagulation factor X; experiment: Compound was evaluated for inhibition of Coagulation factor X at 1.6 uM
[10] = molecular target: T3, Serine protease 1 (Bos taurus); experiment: Compound was evaluated for inhibition of Trypsin at 1.6 uM
Coagulation factor X [11] = molecular target: T1, Coagulation factor X; experiment: Compound was evaluated for inhibition of Coagulation factor X at 7.5 uM
[12] = molecular target: T2, Chymotrypsin-C (Homo sapiens); experiment: Compound was evaluated for inhibition of Serine protease chymotrypsin at 15 uM
[13] = molecular target: T3, Serine protease 1 (Bos taurus); experiment: Compound was evaluated for inhibition of Trypsin at uM; conditions: concentration not given here

T1 sequence (P00742 41-179 limits assumed): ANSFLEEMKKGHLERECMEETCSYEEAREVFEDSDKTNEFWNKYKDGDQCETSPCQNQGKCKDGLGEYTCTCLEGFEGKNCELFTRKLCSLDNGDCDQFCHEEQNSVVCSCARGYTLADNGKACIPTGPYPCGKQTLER
T1 sequence (P00742 235-488 limits assumed): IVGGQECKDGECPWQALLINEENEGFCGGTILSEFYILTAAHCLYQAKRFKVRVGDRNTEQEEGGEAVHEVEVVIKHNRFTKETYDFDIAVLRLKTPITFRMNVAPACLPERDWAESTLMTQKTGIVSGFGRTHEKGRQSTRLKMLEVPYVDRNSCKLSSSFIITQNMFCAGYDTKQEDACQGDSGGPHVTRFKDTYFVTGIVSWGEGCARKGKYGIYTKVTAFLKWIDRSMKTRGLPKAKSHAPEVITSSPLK

How did the inhibition (Coagulation factor X [1]) turn out when `CC(=N)N1CCC(COc2cc(C)cc(OS(=O)(=O)c3ccccc3Cl)c2)CC1` was run?
Its inhibition is 0%.

And the inhibition [2]?
The inhibition was 0%.

And the inhibition [3]?
The inhibition was 0%.

How did the Ki (Serine protease 1) turn out when `Cc1cc(OCCCCN=C(N)N)cc(OS(=O)(=O)c2ccccc2Cl)c1` was run?
Its Ki is 42000 nM.

`Cc1cc(OCc2ccc(C(=N)N)cc2)cc(OS(=O)(=O)c2ccccc2Cl)c1` was tested. Which Ki (Coagulation factor X [4]) did it give?
The Ki was 17 µM.

And the inhibition [5]?
The inhibition was 0%.

And the Ki (Prothrombin)?
The Ki was 110 nM.

What about the Ki (Serine protease 1) of the same compound?
Its Ki is 2700 nM.

With `Cc1cc(OCc2cccc(C(=N)N)c2)cc(OS(=O)(=O)c2ccccc2Cl)c1` as the compound, how does the inhibition [6] read?
Its inhibition is 0%.

What about the Ki (Prothrombin) of the same compound?
The Ki was 99 nM.

What about the Ki (Serine protease 1) of the same compound?
The Ki was 1500 nM.

With `Cc1cc(OCC2CCN(C(=N)N)CC2)cc(OS(=O)(=O)c2ccccc2Cl)c1` as the compound, how does the Ki (Coagulation factor X [4]) read?
The Ki was > 15 µM.

What about the Ki (Serine protease 1) of the same compound?
The Ki was > 15000 nM.

`Cc1cc(OCCCCCC(=N)N)cc(OS(=O)(=O)c2ccccc2Cl)c1` was tested. Which Ki (Prothrombin) did it give?
The Ki was 69 nM.

And the inhibition [7]?
The inhibition was 0%.

And the inhibition (Coagulation factor X [8])?
The inhibition was 0%.

Which inhibition (Coagulation factor X [9]) does the source give for `Cc1cc(OC[C@H]2CC[C@H](C(=N)N)CC2)cc(OS(=O)(=O)c2ccccc2Cl)c1` here?
The inhibition was 0%.

What about the Ki (Prothrombin) of the same compound?
The Ki was 2100 nM.

And the inhibition [10]?
The inhibition was 0%.

`Cc1cc(OCCCC(=N)N)cc(OS(=O)(=O)c2ccccc2Cl)c1` was tested. Which inhibition (Coagulation factor X [11]) did it give?
Its inhibition is 0%.

And the inhibition [12]?
The inhibition was 0%.

What about the Ki (Prothrombin) of the same compound?
The Ki was 460 nM.

What about the inhibition [13] of the same compound?
Its inhibition is 0%.
